{"source": "paper PMC12713470", "about": "“Design and Synthesis of Novel Chalcone Derivatives Targeting Bladder and Liver Cancer: Cytotoxicity Evaluation and Preliminary Mechanistic Studies” (ACS Omega, 2025)", "key": {"T24 cells [1]": {"test_system": "T24 cells", "experiment": "Apoptosis/necrosis analysis (annexin V/PI), T24", "format": "cell-based, human", "settings": "18.50 μM, 48 h", "experimental": "Cells in the exponential growth phase were seeded in 12-well plates at a density of 1 × 10^5 cells per well in 3 mL of complete culture medium. Along with the experimental groups, four control groups were included: one without labeling, one labeled only with propidium iodide (PI), one labeled only with Annexin V, and one labeled with both PI and Annexin V. After 24 h, the cells were treated with the compound at concentrations of 2.15, 4.62, 9.25, and 18.50 μM for 48 h. Following the treatment period, the supernatant from each well was transferred to cytometry tubes and centrifuged at 1100 rpm for 10 min. The remaining adhered cells were washed with 1 mL of Hanks’ solution, and 500 μL of trypsin was added to detach the cells. The trypsin action was neutralized by adding 500 μL of complete medium, and the contents (detached cells plus precentrifuged supernatant) were collected into cytometry tubes, which were then centrifuged again at 1100 rpm for 10 min. After centrifugation, the supernatant was discarded. For labeling, Annexin V binding buffer was prepared by diluting 1 mL of component C in 5 mL of distilled water. Next, a 100 μg/mL propidium iodide working solution was prepared by diluting 5 μL of the 1 mg/mL stock (component B) in 45 μL of 1× buffer. […]"}, "T24 cells [2]": {"test_system": "T24 cells", "experiment": "Clonogenic survival, T24", "format": "cell-based, human", "settings": "18.50 μM (maximum concentration tested), 48 h treatment, 10 days colony formation", "experimental": "The cells were cultured in DMEM (Sigma-Aldrich, St. Louis, USA) and supplemented with 10% fetal bovine serum (Cultilab Ltda., Campinas, Brazil) and antibiotics (amphotericin). They were incubated at 37 °C in a humidified atmosphere with 5% CO2. Control cell groups, which were not exposed to the compound, were included in the experiments and were conducted in triplicate. The chalcone was dissolved in dimethyl sulfoxide (DMSO) for the assays.\nThe cells were trypsinized and plated into 24-well plates at a density of 1.0 × 10^5 cells/mL. Afterward, they were treated with the chalcone at concentrations of 2.15, 4.62, 9.25, and 18.50 μM for 48 h. Following treatment, the cells were washed with Hanks’ solution and trypsinized again, and approximately 1000 cells were reseeded into 12-well plates. These cells were incubated for 10 days in a CO2 incubator to allow colony formation. After the incubation period, the culture medium was removed, and the cells were washed with Hanks’ solution. Fixation was performed using 4% formaldehyde for 20 min, followed by […] in 100% methanol for 20 min. The cells were then stained with a 0.5% crystal violet solution prepared in 25% methanol. […] Absorbance was measured at 570 nm using a spectrophotometer, and the results were expressed as the percentage of colonies formed relative to the untreated control group."}, "HepG2 cells": {"test_system": "HepG2 cells", "experiment": "Morphology assay, HepG2", "format": "cell-based, human", "settings": "2.15-18.50 μM, 48 h", "experimental": "For the morphology assay, 2.0 × 10^5 cells were cultured in 12-well plates for 24 h to allow adherence. After this period, the cells were treated with the chalcone at concentrations of 2.15, 4.62, 9.25, and 18.50 μM for 48 h. After treatment, the cells were examined and photographed under an inverted microscope at 200× magnification."}, "[3]": {"test_system": "HeLa, HepG2, T24, and TOV-21G", "experiment": "MTT cytotoxicity, all evaluated cancer cells (summary)", "format": "cell-based", "settings": "Homo sapiens, read-out: IC50 values against all evaluated cancer cells", "experimental": "Cytotoxicity was determined using the MTT colorimetric assay, and half-maximal inhibitory concentrations (IC50, μM) were obtained for all cell lines (Table ). The selectivity index (SI) was calculated as the ratio of IC50 MRC-5/IC50 cancer cell line. Doxorubicin was employed as a positive control due to its broad-spectrum clinical use, either alone or in combination, against hepatocellular, ovarian, cervical, and bladder cancers. −\nIn vitro biological assays were performed by using five human cell lines for cytotoxicity evaluation. […]\nTwo hours prior to end point reading, 20 μL of MTT [3-(4,5-dimethylthiazol-2-yl)-2,5-diphenyltetrazolium bromide] solution (1.0 mg/mL in sterile phosphate-buffered saline, Sigma-Aldrich) was added to each well. […] After the appropriate incubation, absorbance was measured by using a VICTOR X3 microplate reader (PerkinElmer), and data were processed with WorkOut 2.5 software at a wavelength of 490 nm. […] The percentage of cytotoxicity was calculated using the equation % cytotoxicity = [(A – B)/A] × 100, where A is the optical density (OD4 9 0) of untreated control cells and B is the OD4 9 0 of treated cells.\nCytotoxicity was expressed as the 50% cytotoxic concentration (CC5 0), representing the concentration of sample required to reduce cell viability by 50% relative to that of the untreated control."}}, "data": [{"smiles": "CCCc1cc(/C=C/C(=O)c2ccc(C)cc2)c(OC)c(OC)c1", "note": "[compound 3, (E)-3-(2,3-Dimethoxy-5-propylphenyl)-1-(p-tolyl)-prop-2-en-1-one]", "values": [{"measurement": "cell viability (annexin V/PI), T24", "setting": "T24 cells [1]", "value": "reduced cell viability"}, {"measurement": "proportion of cells undergoing early apoptosis, T24", "setting": "T24 cells [1]", "value": "increased the proportion of cells undergoing early apoptosis"}, {"measurement": "colony formation, T24", "setting": "T24 cells [2]", "value": "significant effect was observed"}, {"measurement": "morphology, HepG2", "setting": "HepG2 cells", "value": "reduction in cell density was observed"}, {"measurement": "IC50", "setting": "[3]", "value": "3.03 to 5.92", "unit": "µM"}]}]}
